Consider two compounds from US10997871B2, “Contractile function measuring devices, systems, and methods of use thereof” (President and Fellows of Harvard College, priority 2014, dated 2021).

For assay [1], the system named is cardiac tissue. The assay can be described thus: optogenetic muscle thin film contractile assay, frequency and dose-dependent response of drug-treated tissue. The format is cell-based. The source says: The system 300 can incorporate the system 290. The system 300 can be substantially similar in structure and function to the systems discussed above, except for the distinctions noted herein. Therefore, like reference numbers represent like structures. The system 300 can include a lens 152 disposed above the platform 222 and a C-mount lens 302 (e.g., a 1× lens) disposed above the lens 152. The system 300 can further include a sensor 304 (e.g., a 100 frames per second complementary metal oxide semiconductor (CMOS) camera, or the like) disposed above the lens 302. The components 152, 302, 304 can be aligned along the vertical axis 164.
The system 300 can include mirror 306 (e.g., a mirror with an oblique angle), a filter 308 (e.g., an LP filter, such as 776LP), and a light source 310 aligned along an axis 312 substantially perpendicular to the vertical axis 164. Light imparted from the light source 310 can be directed by the mirror 306 at the tissue structures 224. The light can further be directed at the sensor 304. The system 300 provides a combination of an optogenetic tissue structure and an optical mapping system setup, including bright field microscopy for optogenetic tissue structures with the sensor 304 and red light illumination from the filter 308.
124 muscle thin films were tested on 15 chips or platforms using three harvests. The error bar indicates a standard error of mean and the shading indicates approximately 95% confidence limits. […] Thus, the independently paced optogenetic muscle thin films enable higher throughput assays to investigate the frequency-dependent response.
As an example, quinidine and verapamil (both frequency-dependent) were tested for frequency and dose-dependent response in cardiac tissue. In particular, optogenetic muscle thin films in a contractile assay were used to recapitulate frequency and dose dependent mechanical responses of drug-treated tissue. In particular, FIGS. 61 and 62 show the pacing frequency, change in spontaneous beating rate frequency, change in twitch stress, and change in maximum Dt/dt for quinidine and verapamil.

For assay [2], the system named is cardiac tissue. Conditions: cited from earlier work.

Turning to `COc1ccc(CCN(C)CCCC(C#N)(c2ccc(OC)c(OC)c2)C(C)C)cc1OC` (centres unmarked) [verapamil], the “1:1 coupling” value in the assay on cardiac tissue [1] (at a low frequency with relatively low concentration, optical pacing) was “low”. The “inotropic effect (twitch stress, contractility)” value in the assay with cardiac tissue [1] (comparison of verapamil with quinidine) was “stronger negative inotropic effect than quinidine”. Further, in the assay with cardiac tissue [1] (drug-treated cardiac tissue), the spontaneous beating rate entry is reported as “increase”. Moreover, in the assay on cardiac tissue [2] (general statement explaining the inotropic result), the “effect on calcium handling” value is given as “directly affects calcium handling”.
On to `C=C[C@H]1C[N@@]2CC[C@H]1C[C@@H]2[C@@H](O)c1ccnc2ccc(OC)cc12` [quinidine], for which the “effect on myocardial contractility” value with cardiac tissue [2] (when given in therapeutic doses, general statement) is given as “does not directly affect myocardial contractility”.
